Experimental findings from patent US12357695B2, “Peptides and nanoparticles for intracellular delivery of molecules” (AADIGEN, LLC, priority 2019, dated 2025) are described below.

One data set has as its system 293T cells. Description: Cellular delivery of Luciferase mRNA, luciferase expression at 72 hrs. In kind it is cell-based. To be noted: 0.25 μg Luc mRNA; for reduction of efficiency / luciferase expression after serum treatment: complexes incubated 3 hrs in 25% serum prior transfection; for reduction of efficiency / luciferase expression after heparan sulfate treatment: complexes incubated 3 hrs with heparan sulfate prior transfection; for luciferase expression: absence of serum or heparan sulfate treatment. As to the method: FIGS. 1A-1C show luciferase expression in 293T cells treated with ADGN-peptide/mRNA complexes. 293T cells cultured in 48 well plates were transfected with ADGN-peptide nanoparticles. ADGN-100, ADGN-106, ADGN-100RI, ADGN-106RI, ADGN-100 Stearyl, ADGN-Hydro1, ADGN-Hydro2, ADGN-Hydro3, ADGN-Hydro4, ADGN-Hydro5, ADGN-Hydro6 and ADGN-peptide/ADGN-100PEG 10% nanoparticles containing 0.25 μg mRNA were formed in sterile water, diluted in sterile water containing 5% Sucrose and filtered with 0.45 μm PES filters. ADGN/mRNA complexes were incubated for 3 hrs in the presence of either 25% serum or heparan sulfate prior transfection. Luciferase expression was monitored 72 hours post transfection and results were reported as RLU (luminescence):mg of protein.
(§1) Complex formation with mRNA. The following protocols were used for the transfection of 2-5 106 Cells or Cells at confluency of about 70-80% cultured in 24 well plates. ADGN peptide/mRNA particles were prepared at a 20:1 molar ratio of ADGN-Peptide/mRNA. using (0.25 μg) mRNA. Luc mRNA (0.25 μg) was diluted in 20 μl of sterile water (GIBCO) at room temperature. 5 μl Final Peptide Solution was added to obtain a total volume of 20 μl. The volume was adjusted to 50 μl with sterile water and was mixed gently with vortex 1 min low speed and incubated 30 min at room temperature. Then the volume was made up to 100 μl by adding sterile water containing 5% sucrose, and the solution was mixed gently with vortex 1 min low speed and incubate 5 min at 37° C. and then was proceeded to cell transfection.
Transfection protocol. Protocol is reported for 24 well plate format. Cells were cultured in Dulbecco's Modified Eagle's Medium (DMEM), supplemented with 2 mM glutamine, 1% antibiotics (streptomycin 10,000 μg/mL, penicillin, 10,000 IU/mL) and 10% (w/v) foetal calf serum (FCS), at 37° C. in a humidified atmosphere containing 5% CO2. 24 well plates seeded with 150,000 cells the day prior to transfection were grown to 50-60% confluence and set up to be at about 70% confluences at the time of transfection. Before transfection, cells were washed twice with DMEM. Cells were then overlaid with 0.1 ml of ADGN-peptide/cargo complex solution containing 0.25 μg mRNA, 0.15 μg plasmid DNA or 10-25 nM siRNA, mixed gently, and incubated for 10 min at 37° C. 0.2 mL of fresh DMEM, were added and cells were incubated for 20 min at 37° C. 1 mL of complete DMEM containing 15% FCS were then added in order to reach a final FCS concentration of 10%, without removing the overlay of ADGN-peptide/cargo complexes. Cells were returned to the incubator (37° C., 5% CO2) and 72 hrs post transfection.
ADGN-peptides were evaluated for cellular delivery of Luciferase mRNA in 293T cells. A single dose of mRNA of 0.25 μg was evaluated. Luc mRNA (0.25 μg) in sterile water (GIBCO) were mixed with ADGN-100, ADGN-100RI, ADGN-106, ADGN-106RI, ADGN-100 Stearyl, ADGN-Hydro1, ADGN-Hydro2, ADGN-Hydro5 and ADGN-Hydro6. ADGN-peptide/mRNA complexes were filtered with 0.45 μm PES filter. In order to evaluate the stability of the ADGN/mRNA complexes in high serum and cell culture conditions, the complexes were incubated for 3 hrs in the presence of either 25% serum or heparan sulfate prior transfection, then 293T cells were transfected and Luciferase expression was monitored at 72 hrs.
ADGN-106 peptides containing YIGSR targeting sequence were evaluated for cellular delivery of Luciferase mRNA in 293T cells. A single dose of mRNA of 0.25 μg was evaluated. Luc mRNA (0.25 μg) in sterile water (GIBCO) were mixed with ADGN-106 and ADGN-106Hydro variant. ADGN-peptide/mRNA complexes were filtered with 0.45 μm PES filter. The ADGN-106/mRNA complexes were incubated for 3 hrs in the presence of 25% serum prior transfection, then 293T cells were transfected and Luciferase expression was monitored at 72 hrs.

In another data set the test system is mice or rat models. Kind of data set: Summary of cargo delivery to targeted organ (Table 1). In kind it is in vivo. The text has this:
Table 1 lists a summary of cell-penetrating peptides that have been proven successful in delivering various cargo molecules to on or more targeted organ (e.g., by intravenous (IV), intramuscular (IM), or subcutaneous (SQ) administration, or intratraccheal instillation or nebulization (NB)) in mice or rat models.

Data set [1] in a line: DLS particle size and level of aggregation of ADGN-peptide/pGL4 plasmid DNA complexes. In kind it is physicochemical. To be noted: pGL4 5.6 kb plasmid. How it is done:
as §1, with “with plasmid DNA.” for “with mRNA.”, “ADGN peptide/plasmid DNA pGL4” for “ADGN peptide/mRNA”, “of ADGN-Peptide/pGL4.” for “of ADGN-Peptide/mRNA.”, “using (0.2 μg). PGL4 plasmid (0.15” for “using (0.25 μg) mRNA. Luc mRNA (0.25”, “temperature. 10” for “temperature. 5”
The ability of the different ADGN-peptides to form stable nanoparticles with DNA pGL4 a 5.6KpB plasmid expression Luciferase was analyzed. The particle sizes and level of aggregation were measured on DLS NanoZS (Malvern Ltd). The mean size and the polydispersity of the ADGN/plasmid DNA complexes were determined at 25° C. for 3 minute per measurement. In order to remove large particles, ADGN/plasmid DNA complexed were filtered using either PES or PVDF 0.45 μm filters. Data are shown in FIG. 10 for a mean of 3 separate experiments.

[2] abbreviates: absence of serum or heparan sulfate.
[3] abbreviates: cargoes and route (IV, IM, SQ, NB) per peptide as listed in Table 1.

Entries after “also recorded” stand apart in the source; their conditions may differ. Square brackets hold non-standard residues; d marks the D form. Ends that are not written are not given here. Stearyl = stearyl group covalently linked to the N-terminus; βAla = NCCC(=O)O

As to “Stearyl-βA-KWRSALWRWRLWRVRSWSR-NH2 (Stearyl-[βAla]KWRSALWRWRLWRVRSWSR-NH2; not fully specified; printed as Stearyl-βA-KWRSALWRWRLWRVRSWSR-NH2) [ADGN-100 Stearyl]”, the “reduction of efficiency / luciferase expression by modification or linker vs unmodified ADGN peptide” value in the data set with 293T cells (setting [2]) is listed as “not significantly affected”. In addition, the “Targeted Organ” value in the data set on mice or rat models (setting [3]) is recorded as “Lung/Liver/; also recorded: Kidney/Pancreas”.

As to “akwllrwlsrwlrwlarwlr ([dA][dK][dW][dL][dL][dR][dW][dL][dS][dR][dW][dL][dR][dW][dL][dA][dR][dW][dL][dR]; also: retro-inverso) [ADGN-106-RI]”, the “ability to form stable nanoparticles/complex with plasmid DNA” value in data set [1] is listed as “did not improve the potency of ADGN-106 to form stable particle with plasmid”. In the data set with 293T cells (setting [2]), the “reduction of efficiency / luciferase expression by modification or linker vs unmodified ADGN peptide” value was “did not modify”. Besides, in the data set with 293T cells, the “reduction of efficiency / luciferase expression after serum treatment” value is listed as 26% and the “reduction of efficiency / luciferase expression after heparan sulfate treatment” value worked out at 13%. In addition, in the data set with mice or rat models (setting [3]), the “Targeted Organ” value was “Liver/Lung”.

With “rswsrvrwlrwrwgasrwk ([dR][dS][dW][dS][dR][dV][dR][dW][dL][dR][dW][dR][dW]G[dA][dS][dR][dW][dK]; also: retro-inverso) [ADGN-100-RI]”, the “ability to form stable nanoparticles/complex with plasmid DNA” value in data set [1] is listed as “did not modifie the ability of the peptide to form stable complex with plasmid DNA”. In addition, the “reduction of efficiency / luciferase expression by modification or linker vs unmodified ADGN peptide” value with 293T cells (setting [2]) is “did not modify”. Moreover, in the data set with 293T cells, the “reduction of efficiency / luciferase expression after serum treatment” value is reported as 40% and the “reduction of efficiency / luciferase expression after heparan sulfate treatment” value is on record as 16%. Also, in the data set on mice or rat models (setting [3]), the “Targeted Organ” value is on record as “Liver/Lung/; also recorded: Kidney/Spleen”.

In the case of “βAKWRSAGWRWRLW RVRSWSR (AKWRSAGWRWRLWRVRSWSR; N-terminal beta-alanine; VARIANT 1 beta-A) [ADGN-100]”, in the data set with 293T cells, the luciferase expression result is listed as “high level of luciferase expression”, the “reduction of efficiency / luciferase expression after serum treatment” value came to 90% and the “reduction of efficiency / luciferase expression after heparan sulfate treatment” value is 50%. Moreover, the “Targeted Organ” value in the data set with mice or rat models (cargoes and route (IV, IM, SQ, NB) per peptide as listed in Table 1, listed as ADGN-100a) was “Lung/Liver/; also recorded: Kidney/Pancreas”.

Consider “βALWRALWRLWRSLWRLLWKA ([βAla]LWRALWRLWRSLWRLLWKA) [ADGN-106]”, for which the “ability to form stable nanoparticles/complex with plasmid DNA” value in data set [1] was “large size and a the poor stability”. Moreover, the “potency relative to ADGN-100” value in the data set on 293T cells (setting [2]) is given as 2 fold. In addition, in the data set with 293T cells, the luciferase expression result was “high level of luciferase expression” and the “reduction of efficiency / luciferase expression after heparan sulfate treatment” value is 50%. Moreover, the “Targeted Organ” value in the data set on mice or rat models (setting [3]) is recorded as “Liver/Lung”.
